Non-standard residues stand in square brackets, D forms with d. Residues, ends and D or L forms follow the SMILES beside them. Dip = N[C@H](C(=O)O)C(c1ccccc1)c1ccccc1
Columns and labels:
human red blood cells = experiment: Haemolytic activity in vitro; assay type: cell-based; settings: for Mean cell death (%): 1 h 37° C., 1% RBC
Method: Freshly collected human blood was centrifuged at 1500 rpm for 10 minutes in order to isolate the red blood cells. The red blood cells (RBC) were washed three times with PBS [35 mM phosphate buffer with 150 mM NaCl, pH 7.4] by centrifugation at 1500 rpm for 10 minutes, and adjusted to 10% haematocrit with PBS. LTX-315 solutions were added to give a final concentration range of the peptide from 1200 μg/ml to 1 μg/ml and an RBC concentration of 1%. The resulting suspension was incubated with agitation for one hour at 37° C. After incubation the suspension was centrifuged at 4000 rpm for 5 minutes, and the released haemoglobin were monitored by measuring the absorbance of the supernatant at 405 nm. PBS was used as negative control and assumed to cause no haemolysis. 0.1% Triton was used as positive control and assumed to cause complete haemolysis.
Released haemoglobin was monitored by measuring the absorbance of the supernatant at 405 nm, and percent haemolysis was calculated by the equation: % Haemolysis=[(A405 LTX-315−A405 PBS)/(A405 0.1% Triton X-100−A405 PBS)]×100
LTX-315 concentration corresponding to 50% haemolysis (EC50) was determined from a dose-response curve.

[1] = system: panel of 37 human cancer cell lines; assay type: cell-based
Method: The adherent cell lines were washed once with 200 μl FBS-free culture medium before treatment. […] compounds in ¼ dilution step with a top dose of 400 μM (range 4×10^−4 to 4×10^−10 M), with 1% (final concentration) Triton X-100 as positive control and FBS-free culture medium as negative control. The cells (190 μl) were incubated in a 200 μl final volume of FBS-free culture medium containing test substances at 37° C. under 5% CO2.
Three independent experiments were performed, each concentration being tested in quadruplicate. Control cells were treated with vehicle alone. At the end of treatments, the cytotoxic activity was evaluated by a MTS assay (see § 3.3.).
Like MTT, MTS is bioreduced by cells into a formazan product that is directly soluble in culture medium without processing, unlike MTT.
At the end of the cells treatment, 40 μl of a 0.22 μm filtered freshly combined solution of MTS (20 ml at 2 mg/ml, Ref G1111, Batch 235897, Exp March 2009, Promega, Charbonnières, France) and PMS (1 ml at 0.92 mg/ml, Ref P9625, Batch 065K0961, Sigma) in Dulbecco's Phosphate Buffered Saline (DPBS, Ref 17-513Q, Batch 6MB0152, Cambrex), were added in each well. Culture plates were incubated for 2 h at 37° C. Absorbency (OD) were measured at 490 nm in each well using VICTOR^3™ 1420 multilabeled counter (Wallac, PerkinElmer, Courtaboeuf, France).
IC50: drug concentration to obtain a 50% inhibition of cell proliferation.
The dose-response curves were plotted using XLFit 3 (IDBS, United Kingdom). The IC50 determination values were calculated using the XLFit 3 software from semi-log curves. Individual IC50 determination values as well as mean and SD values were generated.

A375 cells [2] = experiment: Confocal microscopy with fluorescence-labeled peptide (internalization); assay type: cell-based, human; settings: 3 μM and 1.5 μM, 30-60 min
Method: Subconfluential A375 cells were seeded at 8,000 cells/well as above, and transfected on the second day using the Lipofectamine LTX with Plus transfection reagents (Invitrogen) following the manufacturer's protocol. The mitochondria were labeled using the pDsRed2-Mito, and the nucleus was labeled using the GFP-Histon2B plasmid (Imaging Platform, University of Tromsø). A day after transfection, cells were washed twice with serum-free RPMI, and treated at different concentration and incubation periods with LTX-315 Pacific Blue or LTX-328 Pacific Blue. […] Control cells were treated with unlabeled LTX-315 and also with serum-free RPMI only. After incubation, cells were fixed with 4% paraformaldehyde in PBS, and the wells were covered with Prolong Gold antifade (Invitrogen). Cells were further analyzed by use of a Leica TCS SP5 confocal microscope, with a […] objective. Pacific Blue, GFP and Ds Red were excited using UV, with 488 and 561 lasers, and fluorescence channels were sequentially detected using the following band passes: UV: 420-480 nm (with attenuation), 488: 501-550 nm and 561: 576-676 nm.

A375 cells [3] = experiment: Bright field confocal live cell imaging; assay type: cell-based, human; settings: LTX-315 at IC-50 value, majority of the cells
Method: A375 cells were seeded at 10,000 cells/well in a complete media in Nunc Lab-Tec 8-wells chambered covered glass (Sigma) precoated with 25 μg/ml human fibronectin (Sigma) that were allowed to adhere overnight. Cells were washed twice with a serum-free RPMI, treated with peptide dissolved in RPMI and investigated using Bright on a Leica TCS SP5 confocal microscope, with a 63×/1.2 W objective. The microscope was equipped with an incubation chamber with CO2 and temperature control.

[4] = system: CT26WT colon carcinoma cells; experiment: Re-challenge with CT26WT colon carcinoma in mice with complete regression; assay type: in vivo, Balb-c mice; settings: of 9 mice previously treated with 0.5 or 1 mg
Method: Methods: Female Balb-c mice (n=4), previously treated with LTX-315, 1 mg) or (n=9); previously treated with LTX-315 0.5 or 1 mg) were re-inoculated (s.c. in the abdominal area) with either murine A20 B cell lymphoma cells or CT26WT colon carcinoma cells (5 million) respectively 6 weeks following initial treatment with LTX-315. Tumour growth was monitored for up to 36 days following re-inoculation.

For `NCCCC[C@H](NC(=O)[C@@H](NC(=O)[C@H](Cc1c[nH]c2ccccc12)NC(=O)[C@H](CCCCN)NC(=O)[C@H](CCCCN)NC(=O)[C@H](Cc1c[nH]c2ccccc12)NC(=O)[C@H](Cc1c[nH]c2ccccc12)NC(=O)[C@H](CCCCN)NC(=O)[C@@H](N)CCCCN)C(c1ccccc1)c1ccccc1)C(N)=O` [LTX-315, K-K-W-W-K-K-W-Dip-K-NH2] (H-KKWWKKW[Dip]K-NH2), the “Mean cell death (%)” value (human red blood cells; LTX-315 1 μg/ml) was 0.0%, the “Mean cell death (%)” value (human red blood cells; LTX-315 10 μg/ml) was 0.6% and the “Mean cell death (%)” value (human red blood cells; LTX-315 50 μg/ml) was 1.6%. The “Mean cell death (%)” value (human red blood cells; LTX-315 100 μg/ml) was 3.6%, the “Mean cell death (%)” value (human red blood cells; LTX-315 500 μg/ml) was 20.4% and the “Mean cell death (%)” value (human red blood cells; LTX-315 1000 μg/ml) was 38.2%. For the same compound, the “Mean cell death (%)” value (human red blood cells; LTX-315 1200 μg/ml) was 37.7%, the “Mean EC50 (50% haemolysis)” value (human red blood cells; human red blood cells) was “greater than 1200 μg/ml” and the EC50 (human red blood cells; human red blood cells, read-out: Mean EC50 (50% haemolysis)) was > 833 µM. The IC50 (human red blood cells; red cells of human) was ≥ 833 µM, the “Potency rank among the five compounds tested, 37 cell line panel” value [1] was “most potent compound from the five compounds tested” and the IC50 ([1]; 4 h) was 3.63 ± 1.45 µM. For the same compound, the “IC50 range against 37 human cancer cell lines” value ([1]; conclusion) was “micromolar to ten micromolar range”, the “Internalization of Pacific Blue-labeled peptide” value (A375 cells [2]) was “rapidly penetrated the plasma membrane” and the “Time to rounding up and total collapse of the cells” value (A375 cells [3]) was 15 to 60 min. For the same compound, the “Animals with complete regression after re-inoculation” value [4] was 2 and the “Mice with inhibition of tumour growth after re-inoculation” value ([4]; P<0.01 versus control) was 7.

From US11123398B2, “Chemotherapeutic combinations of cationic antimicrobial peptides and chemotherapeutics” (LYTIX BIOPHARMA AS, priority 2014, dated 2021)
